# How the values were obtained:
# [1] = system: AUUUA RNA / RNA binding protein (K562 extract); test: Exploratory library screen, filter binding, 32P-labeled AUUUA RNA and K562 extract; conditions: 10 μM
# Excerpt: FIG. 4 is a graph of the amount of radioactively labeled RNA retained on a filter (expressed in percent of the amount of RNA retained on a filter in a reference binding solution) following loading of various binding solutions. All of the binding solutions contained radioactively labeled AUUUA RNA either alone or including various other components. The first column represents a binding solution without RNA binding protein. The remaining columns represent binding solution containing RNA binding protein (K562 extract). Columns 3 through 8 correspond to binding solutions including the indicated test compound.
# (§1) a. Filter binding. Filter binding involves trapping interacting molecules on a filter while non interacting molecules pass through the filter. This procedure is known to those of skill in the art. For example, prewet nitrocellulose filters are equilibrated in 1× binding buffer. The binding reaction is then applied to the filter by vacuum filtration to remove unbound RNA. The filter is washed in 1× binding buffer, scintillation cocktail is added and the amount of protein-bound RNA is determined by scintillation counting.
# (§2) All binding reactions were performed in 96-well v-bottom plates in a final volume of 10 μl. The assays were constituted and performed as described below. Specifically, assays were performed by (1) forming a binding solution including RNA molecules, 7.5 mM BTP at pH 8.5, 10 mM KCl, 5 mM MgCl2, 0.2 mM DTT, and 10% glycerol, (2) heating the binding solution to denature the RNA molecules, (3) cooling the binding solution, (4) adding RNA binding proteins to the binding solution, (5) loading the binding solution onto a filter, and (6) detecting the amount RNA retain on the filter. It is preferred that the samples be loaded on to a filter of either pure nitrocellulose or a mixed cellulose ester (MCA). It is also preferred that the filters have a 0.2μ pore size, although filters with a 0.45μ pore size will also bind the RNA/RNA binding protein complex. It is preferred that, prior to loading the binding solution onto a filter, the volume is increased. For this purpose, it is preferred that the dilution solution has the same buffer components as the binding solution except lacking the density agent. For a 10 μl volume it is preferred that the final volume be about 100 μl. It is also preferred that the binding solution be loaded onto the filter under vacuum. It is also preferred that the filter is washed twice prior to detecting the amount of RNA retained on the filter. Preferably the wash solution had the same composition as the dilution solution. However, TE (pH 8.0), PBS, or TCA can also be used as wash solutions. In most of the assays described below, the RNA molecules were labeled with ^32 P.
# The library was initially screened at 10 μM against ^32 P-labeled AUUUA RNA. Several methods of introducing the compounds into the binding reaction were tested. Initially the compounds were co-incubated with the RNA and protein, producing modest results. Next, preincubation with either the protein extract or the RNA was tried with improved results.
# Seventeen compounds were chosen for further analysis at 100 nM, 1 μM and 10 μM using both AUUUA and IRE RNAs based on the results from three screening efforts (Exps. 29-31). Table 2 summarizes the results from these compounds at 10 μM. The results are also shown graphically in FIG. 4. […] Compounds D9 and H2, chosen as negative controls from the initial screening, continued to have no effect in the dose dependent screen (Exp. 33) and were identified as vehicle controls.
# A 96 member random compound library was screened with the disclosed high throughput assay. The compounds were initially screened at 10 μM against ^32 P-labeled AUUUA RNA. […] Seventeen compounds were chosen for further analysis at 100 nM, 1 μM and 10 μM using both AUUUA and IRE RNA molecules to determine if any selectivity of the compounds could be detected. […]
# TNF-α production = conditions: previously shown; cited from earlier work
# [2] = system: IRE RNA / RNA binding protein (K562 extract); test: High throughput filter binding assay, labeled IRE RNA and K562 protein extract; conditions: hemin 1 to 100 μM; FeCl3 and desferroxiamine 1 μM to 1 mM
# Experimental: as §1
# as §2, with “It is also preferred that the binding solution be loaded onto the filter under vacuum. It is also preferred that the filter is washed twice prior to detecting the amount of RNA retained on the filter. Preferably the wash solution had the same composition as the dilution solution. However, TE (pH 8.0), PBS, or TCA can also be used as wash solutions. In most of the assays described below, the RNA molecules were labeled with ^32 P.” left out
# Binding assays were performed with wild-type IRE RNA and K562 protein extract in the presence of sources of iron or iron chelators to determine the ability of the filter assay to detect the modulation of binding interactions by small molecules. […] The reactions were analyzed by gel shifts to visualize the results of the filter assay. […]
# [3] = system: human CD45 5' UTR / RNA binding proteins (K562 cell line protein); test: Gel shift specificity (competition), labeled CD45 5' UTR and K562 protein; conditions: 100 and 1,000 fold molar excess of unlabeled RNA
# Excerpt: (§3) A primer pair was designed from the 5' end of the UTR and a 3' primer encompassing nucleotide +1 with the use of the OLIGO program. Similar primers encompassing the same criteria can be designed either manually without the use of this program, or using another similar oligonucleotide design program. In addition, the 5' primer contained 24 nucleotides at the 5' end encoding for the T7 promoter. Clones containing the above sequences were generated by rtPCR from total RNA obtained from the K562 lymphoblastoma cell line. The clones were restriction mapped and analyzed by gel electrophoresis to confirm their identity.
# (§4) PCR products generating a single band (in the undigested lanes) were then used for in vitro transcription of labeled RNA using Ambion's Maxiscript Kit. The labeled transcripts were used in the RNA binding protein detection assay described above. The binding solutions containing the labeled RNA were incubated with 2 μg of protein isolated from the same cell from which the rtPCR product was generated, and the products were resolved on a non-denaturing gel. […] In this experiment, a 100 and 1,000 fold molar excess of unlabeled identical RNA or the same excess of different RNA are added to the binding reactions.
# [4] = system: human C4b-binding protein 5' UTR / RNA binding proteins (K562 cell line protein); test: Gel shift specificity (competition), labeled C4b-binding protein 5' UTR and K562 protein; conditions: 100 and 1,000 fold molar excess of unlabeled RNA
# Excerpt: as §3, §4
molecule,measurement,setting,value
"CC(=NN=C(N)N)c1cc(NC(=O)CCCCCCCCC(=O)Nc2cc(C(C)=NN=C(N)N)cc(C(C)=NN=C(N)N)c2)cc(C(C)=NN=C(N)N)c1 [Compound G10, CNI-1493]",change in counts across the experiments,[1]; 4 experiments,substantial increase in counts in 3 of the 4 experiments
same,"labeled AUUUA RNA retained on filter, percent of RNA&K562 reference, Experiment #29",[1]; RNA&K562 = 100,114.53%
same,"labeled AUUUA RNA retained on filter, percent of RNA&K562 reference, Experiment #30",[1]; RNA&K562 = 100,66.94%
same,"labeled AUUUA RNA retained on filter, percent of RNA&K562 reference, Experiment #31",[1]; RNA&K562 = 100,127.28%
same,"labeled AUUUA RNA retained on filter, percent of RNA&K562 reference, Experiment #33",[1]; RNA&K562 = 100,135.24%
same,Avg. % (labeled AUUUA RNA retained on filter),"[1]; mean of Experiments #33, #31, #30, #29",111.00%
same,post-transcriptional inhibition of TNF-α production,TNF-α production,post-transcriptionally inhibit TNF-α production
"CC(=O)N(O)CCCCCNC(=O)CCC(=O)N(O)CCCCCNC(=O)CCC(=O)N(O)CCCCCN [Desferroxiamine, desferroxiamine]",modulation of IRE/protein binding by small molecules,[2],did not change the amount IRE/protein complex formed
[Cl][Fe]([Cl])[Cl] [FeCl3],modulation of IRE/protein binding by small molecules,[2],concentration-dependent inhibition of binding
hemin,modulation of IRE/protein binding by small molecules,[2],concentration-dependent inhibition of binding
"CD45: 5' UTR RNA of human CD45, SEQ ID NO:4 (nucleic acid) CUGACAUCAUCACCUAGCAGUUCAUGCAGCUAGCAAGUGGUUUGUUCUUAGGGUAACAGAGGAGGAAAUUGUUCCUCGUCUGAUAAGACAACAGUGGAGAAAGGACGCAUGCAGUUUCUUAGGGACACGGCUGACUUCCAGAUAUGACCAUGUAUUUGUGGCUUAAACUCUUGG",competition of complex formation by unlabeled RNA,[3],concentration dependent inhibition of complex formation
"C4b-binding protein: 5' UTR RNA of human C4b-binding protein alpha chain, SEQ ID NO:3 (nucleic acid, expressed or natural sequence) GCUGCUUUAUUUCUGCUGUUAAUCAUUCAUUGGGCCCGUCAAAAGUUUCUGCCCAUCUAUUUCCAUCAACCGUCCUUGACCAGCCAACCACAUGGCUGAAAUUCAGG",competition of complex formation by unlabeled RNA,[4],concentration dependent inhibition of complex formation

# Source: patent US5859227A, “RNA sequences which interact with RNA-binding proteins” (Bearsden Bio, Inc., priority 1997, dated 1999)
